Data reported in PubChem BioAssay (NCI).
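Results reflect a 48-hour exposure of cells in 96-well plates to compound at five concentrations. TGI is the concentration that stops growth completely.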

Legend:
Assay in all cases: inhibition of tumour cell growth, NCI panel, 48 h
786-0 renal = system: 786-0 renal
A498 renal = system: A498 renal
A549 NSCLC = system: A549 NSCLC
ACHN renal = system: ACHN renal
BT-549 breast = system: BT-549 breast
CAKI-1 renal = system: CAKI-1 renal
CCRF-CEM leukemia = system: CCRF-CEM leukemia
COLO 205 colon = system: COLO 205 colon
DU-145 prostate = system: DU-145 prostate
EKVX NSCLC = system: EKVX NSCLC
HCC-2998 colon = system: HCC-2998 colon
HCT-116 colon = system: HCT-116 colon
HCT-15 colon = system: HCT-15 colon
HL-60(TB) leukemia = system: HL-60(TB) leukemia
HOP-62 NSCLC = system: HOP-62 NSCLC
HS 578T breast = system: HS 578T breast
HT29 colon = system: HT29 colon
IGROV1 ovarian = system: IGROV1 ovarian
K-562 leukemia = system: K-562 leukemia
KM12 colon = system: KM12 colon
LOX IMVI melanoma = system: LOX IMVI melanoma
M14 melanoma = system: M14 melanoma
MALME-3M melanoma = system: MALME-3M melanoma
MCF7 breast = system: MCF7 breast
MDA-MB-231 breast = system: MDA-MB-231 breast
MDA-MB-435 = system: MDA-MB-435
MDA-N = system: MDA-N
MOLT-4 leukemia = system: MOLT-4 leukemia
NCI-H226 lung = system: NCI-H226 lung
NCI-H23 lung = system: NCI-H23 lung
NCI-H460 lung = system: NCI-H460 lung
NCI-H522 lung = system: NCI-H522 lung
NCI/ADR-RES ovarian = system: NCI/ADR-RES ovarian
OVCAR-3 ovarian = system: OVCAR-3 ovarian
OVCAR-4 ovarian = system: OVCAR-4 ovarian
OVCAR-5 ovarian = system: OVCAR-5 ovarian
OVCAR-8 ovarian = system: OVCAR-8 ovarian
PC-3 prostate = system: PC-3 prostate
RPMI-8226 leukemia = system: RPMI-8226 leukemia
SF-268 CNS = system: SF-268 CNS
SF-295 CNS = system: SF-295 CNS
SF-539 CNS = system: SF-539 CNS
SK-MEL-2 melanoma = system: SK-MEL-2 melanoma
SK-MEL-28 melanoma = system: SK-MEL-28 melanoma
SK-MEL-5 melanoma = system: SK-MEL-5 melanoma
SK-OV-3 ovarian = system: SK-OV-3 ovarian
SN12C renal = system: SN12C renal
SNB-19 CNS = system: SNB-19 CNS
SNB-75 CNS = system: SNB-75 CNS
SR leukemia = system: SR leukemia
SW-620 colon = system: SW-620 colon
T-47D breast = system: T-47D breast
TK-10 renal = system: TK-10 renal
U251 CNS = system: U251 CNS
UACC-257 melanoma = system: UACC-257 melanoma
UACC-62 melanoma = system: UACC-62 melanoma
UO-31 renal = system: UO-31 renal

CCOC(=O)C1(Cc2ccc3c(c2)CCC3)Cc2cc3c(cc2C1=O)CCC3 (configuration not stated)
TGI (786-0 renal): > 100 µM | TGI (A498 renal): > 78.7 µM | TGI (A549 NSCLC): > 100 µM | TGI (ACHN renal): > 100 µM | TGI (BT-549 breast): > 100 µM | TGI (CAKI-1 renal): > 100 µM | TGI (CCRF-CEM leukemia): > 100 µM | TGI (COLO 205 colon): > 100 µM | TGI (DU-145 prostate): > 100 µM | TGI (EKVX NSCLC): > 100 µM | TGI (HCC-2998 colon): > 100 µM | TGI (HCT-116 colon): > 100 µM | TGI (HCT-15 colon): > 100 µM | TGI (HL-60(TB) leukemia): 7.07 µM | TGI (HOP-62 NSCLC): > 100 µM | TGI (HS 578T breast): > 100 µM | TGI (HT29 colon): > 100 µM | TGI (IGROV1 ovarian): > 100 µM | TGI (K-562 leukemia): > 100 µM | TGI (KM12 colon): > 100 µM | TGI (LOX IMVI melanoma): > 100 µM | TGI (M14 melanoma): > 100 µM | TGI (MALME-3M melanoma): > 100 µM | TGI (MCF7 breast): > 100 µM | TGI (MDA-MB-231 breast): > 100 µM | TGI (MDA-MB-435): > 100 µM | TGI (MDA-N): > 100 µM | TGI (MOLT-4 leukemia): > 100 µM | TGI (NCI-H226 lung): > 100 µM | TGI (NCI-H23 lung): > 100 µM | TGI (NCI-H460 lung): > 100 µM | TGI (NCI-H522 lung): > 100 µM | TGI (NCI/ADR-RES ovarian): > 100 µM | TGI (OVCAR-3 ovarian): > 100 µM | TGI (OVCAR-4 ovarian): > 100 µM | TGI (OVCAR-5 ovarian): > 100 µM | TGI (OVCAR-8 ovarian): > 100 µM | TGI (PC-3 prostate): > 100 µM | TGI (RPMI-8226 leukemia): > 100 µM | TGI (SF-268 CNS): > 100 µM | TGI (SF-295 CNS): > 100 µM | TGI (SF-539 CNS): > 100 µM | TGI (SK-MEL-2 melanoma): > 100 µM | TGI (SK-MEL-28 melanoma): > 100 µM | TGI (SK-MEL-5 melanoma): > 100 µM | TGI (SK-OV-3 ovarian): > 100 µM | TGI (SN12C renal): > 100 µM | TGI (SNB-19 CNS): > 100 µM | TGI (SNB-75 CNS): > 100 µM | TGI (SR leukemia): > 100 µM | TGI (SW-620 colon): > 100 µM | TGI (T-47D breast): > 100 µM | TGI (TK-10 renal): > 100 µM | TGI (U251 CNS): > 100 µM | TGI (UACC-257 melanoma): > 100 µM | TGI (UACC-62 melanoma): > 100 µM | TGI (UO-31 renal): > 100 µM
